Test results reported in US20100298141A1, “SUBSTITUTED PYRIDINE N-OXIDE HERBICIDES” (E. I. DU PONT DE NEMOURS AND COMPANY, priority 2007, published 2010).

Experiments:
[1] = test system: cocklebur; test: Test C pre-/postemergence test; format: in vivo, Xanthium strumarium; details: for Plant response rating, Cocklebur: 31 g ai/ha, scale 0 to 100 (0 no effect, 100 complete control)
Summary of the method: (§1)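 Compounds in a non-phytotoxic solvent with surfactant applied preemergence to seeded pots and, at the same time, postemergence to plants 2–18 cm tall (1- to 4-leaf stage). Paddy tests: pots flooded to 3 cm, compound applied into the water, depth held throughout.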

[2] = test system: crabgrass; test: Test C pre-/postemergence test; format: in vivo, Digitaria sanguinalis; details: for Plant response rating, Crabgrass, Large: 31 g ai/ha, scale 0 to 100 (0 no effect, 100 complete control)
Summary of the method: as §1

[3] = test system: Surinam grass; test: Test C pre-/postemergence test; format: in vivo, Brachiaria decumbens; details: for Plant response rating, Surinam Grass: 31 g ai/ha, scale 0 to 100 (0 no effect, 100 complete control)
Summary of the method: as §1

[4] = test system: kochia; test: Test C pre-/postemergence test; format: in vivo, Kochia scoparia; details: for Plant response rating, Kochia: 31 g ai/ha, scale 0 to 100 (0 no effect, 100 complete control)
Summary of the method: as §1

[5] = test system: giant foxtail; test: Test C pre-/postemergence test; format: in vivo, Setaria faberii; details: for Plant response rating, Foxtail, Giant: 31 g ai/ha, scale 0 to 100 (0 no effect, 100 complete control)
Summary of the method: as §1

[6] = test system: lambsquarters; test: Test C pre-/postemergence test; format: in vivo, Chenopodium album; details: for Plant response rating, Lambsquarters: 31 g ai/ha, scale 0 to 100 (0 no effect, 100 complete control)
Summary of the method: as §1

[7] = test system: downy brome; test: Test C pre-/postemergence test; format: in vivo, Bromus tectorum; details: for Plant response rating, Bromegrass, Downy: 31 g ai/ha, scale 0 to 100 (0 no effect, 100 complete control)
Summary of the method: as §1

[8] = test system: velvetleaf; test: Test A pre-/postemergence greenhouse test; format: in vivo, Abutilon theophrasti; details: for Plant response rating, Velvetleaf: 0 to 100 scale where 0 is no effect and 100 is complete control; for Velvetleaf plant response rating: 0 to 100 scale
Summary of the method: (§2)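 Greenhouse herbicide screen, pre- and postemergence in parallel. Soil: loam plus sand. Formulation: non-phytotoxic solvent mix with surfactant. Postemergence stage: one to two leaves, 2–10 cm height. Evaluation: visual injury, compared with untreated controls, about 10 days after treatment.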

[9] = test system: velvetleaf; test: Test C pre-/postemergence test; format: in vivo, Abutilon theophrasti; details: for Plant response rating, Velvetleaf: 31 g ai/ha, scale 0 to 100 (0 no effect, 100 complete control)
Summary of the method: as §1

[10] = test system: barnyardgrass; test: Test A pre-/postemergence greenhouse test; format: in vivo, Echinochloa crus-galli; details: for Plant response rating, Barnyardgrass: 0 to 100 scale where 0 is no effect and 100 is complete control; for Barnyardgrass plant response rating: 0 to 100 scale
Summary of the method: as §2

[11] = test system: eastern black nightshade; test: Test C pre-/postemergence test; format: in vivo, Solanum ptycanthum
Summary of the method: as §1

[12] = test system: common ragweed; test: Test C pre-/postemergence test; format: in vivo, Ambrosia elation
Summary of the method: as §1

[13] = test system: green foxtail; test: Test C pre-/postemergence test; format: in vivo, Setaria viridis; details: for Plant response rating, Foxtail, Green: 31 g ai/ha, scale 0 to 100 (0 no effect, 100 complete control)
Summary of the method: as §1

[14] = test system: johnsongrass; test: Test C pre-/postemergence test; format: in vivo, Sorghum halepense; details: for Plant response rating, Johnsongrass: 31 g ai/ha, scale 0 to 100 (0 no effect, 100 complete control)
Summary of the method: as §1

[15] = test system: wild oat; test: Test C pre-/postemergence test; format: in vivo, Avena fatua; details: for Plant response rating, Oat, Wild: 31 g ai/ha, scale 0 to 100 (0 no effect, 100 complete control)
Summary of the method: as §1

[16] = test system: duck salad; test: Test C flooded paddy test; format: in vivo, Heteranthera limosa; details: Flood
Summary of the method: (§3)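 Ratings were visual and made relative to untreated controls after 13 to 15 greenhouse days.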

[17] = test system: redroot pigweed; test: Test A pre-/postemergence greenhouse test; format: in vivo, Amaranthus retroflexus; details: for Plant response rating, Pigweed: 0 to 100 scale where 0 is no effect and 100 is complete control; for Pigweed plant response rating: 0 to 100 scale
Summary of the method: as §2

[18] = test system: rice; test: Test C flooded paddy test; format: in vivo, Oryza sativa; details: Flood
Summary of the method: as §3

[19] = 62 g ai/ha, Preemergence, scale 0 to 100
[20] = 125 g ai/ha, preemergence, scale 0 (no effect) to 100 (complete control)
[21] = preemergence, 250 g ai/ha, scale 0 (no effect) to 100 (complete control)
[22] = Postemergence, 500 g ai/ha, 0 is no effect, 100 is complete control
[23] = Preemergence, 125 g ai/ha, 0 no effect, 100 complete control
[24] = 62 g ai/ha, scale 0 to 100 (0 no effect, 100 complete control)
[25] = 250 g ai/ha, scale 0 to 100, 0 no effect, 100 complete control, 13 to 15 days

CCc1cc[n+]([O-])c([S+]([O-])Cc2c(C(F)(F)F)nn(C)c2OCC(F)(F)F)c1 (centres unmarked) [Compound 59]
0: Cocklebur plant response rating [1, 19] | Plant response rating, Cocklebur ([1]; Preemergence) | Plant response rating, Kochia ([4]; Preemergence) | Plant response rating, Velvetleaf ([9]; Preemergence) | Plant response rating, Foxtail, Green ([13]; Preemergence)
80: Cocklebur plant response rating [1, 21] | Crabgrass, Large plant response rating [2, 19] | Surinam Grass plant response rating [3, 19] | Plant response rating, Lambsquarters ([6]; Preemergence) | Velvetleaf plant response rating [8, 22] | Plant response rating, Barnyardgrass ([10]; Postemergence, 125 g ai/ha)
90: Bromegrass, Downy plant response rating [7, 20] | Barnyardgrass plant response rating [10, 22] | Oat, Wild plant response rating [15, 20] | Oat, Wild plant response rating [15, 21] | Plant response rating, Ducksalad [16, 25] | Pigweed plant response rating [17, 22]
98: Foxtail, Giant plant response rating [5, 20]
85: Nightshade plant response rating [11, 19] | Nightshade plant response rating [11, 21] | Oat, Wild plant response rating [15, 19]
100: Crabgrass, Large plant response rating [2, 20] | Crabgrass, Large plant response rating [2, 21] | Surinam Grass plant response rating [3, 20] | Surinam Grass plant response rating [3, 21] | Kochia plant response rating [4, 20] | Kochia plant response rating [4, 21] | Foxtail, Giant plant response rating [5, 21] | Lambsquarters plant response rating [6, 19] | Lambsquarters plant response rating [6, 20] | Lambsquarters plant response rating [6, 21] | Bromegrass, Downy plant response rating [7, 21] | Plant response rating, Velvetleaf ([8]; Preemergence, 500 g ai/ha) | Velvetleaf plant response rating [9, 20] | Velvetleaf plant response rating [9, 21] | Barnyardgrass plant response rating [10, 23] | Plant response rating, Barnyardgrass ([10]; Preemergence, 500 g ai/ha) | Ragweed plant response rating [12, 20] | Ragweed plant response rating [12, 21] | Foxtail, Green plant response rating [13, 20] | Foxtail, Green plant response rating [13, 21] | Johnsongrass plant response rating [14, 20] | Johnsongrass plant response rating [14, 21] | Pigweed plant response rating [17, 23] | Plant response rating, Pigweed ([17]; Preemergence, 500 g ai/ha)
30: Cocklebur plant response rating [1, 20] | Ragweed plant response rating [12, 19]
40: Plant response rating, Surinam Grass ([3]; Preemergence) | Bromegrass, Downy plant response rating [7, 19] | Plant response rating, Ducksalad [16, 24]
45: Plant response rating, Johnsongrass ([14]; Preemergence)
95: Foxtail, Green plant response rating [13, 19]
70: Plant response rating, Crabgrass, Large ([2]; Preemergence) | Kochia plant response rating [4, 19] | Velvetleaf plant response rating [9, 19] | Plant response rating, Rice [18, 25]
60: Plant response rating, Velvetleaf ([8]; Postemergence, 125 g ai/ha) | Velvetleaf plant response rating [8, 23] | Johnsongrass plant response rating [14, 19] | Plant response rating, Oat, Wild ([15]; Preemergence) | Plant response rating, Pigweed ([17]; Postemergence, 125 g ai/ha)
10: Plant response rating, Rice [18, 24]
35: Plant response rating, Foxtail, Giant ([5]; Preemergence)
55: Foxtail, Giant plant response rating [5, 19]
20: Plant response rating, Bromegrass, Downy ([7]; Preemergence)

CCc1cc[n+]([O-])c(S(=O)(=O)Cc2c(C(F)(F)F)nn(C)c2OCC(F)(F)F)c1 [Compound 60]
30: Plant response rating, Ragweed ([12]; Preemergence, 31 g ai/ha, scale 0 to 100 (0 no effect, 100 complete control))
80: Plant response rating, Kochia ([4]; Preemergence) | Plant response rating, Barnyardgrass ([10]; Postemergence, 125 g ai/ha) | Nightshade plant response rating [11, 19] | Pigweed plant response rating [17, 22]
55: Bromegrass, Downy plant response rating [7, 19] | Bromegrass, Downy plant response rating [7, 20]
20: Plant response rating, Rice [18, 25]
0: Cocklebur plant response rating [1, 19] | Cocklebur plant response rating [1, 20] | Plant response rating, Cocklebur ([1]; Preemergence) | Cocklebur plant response rating [1, 21] | Plant response rating, Bromegrass, Downy ([7]; Preemergence) | Plant response rating, Velvetleaf ([9]; Preemergence) | Plant response rating, Ducksalad [16, 24] | Plant response rating, Rice [18, 24]
100: Crabgrass, Large plant response rating [2, 19] | Crabgrass, Large plant response rating [2, 20] | Plant response rating, Crabgrass, Large ([2]; Preemergence) | Crabgrass, Large plant response rating [2, 21] | Surinam Grass plant response rating [3, 19] | Surinam Grass plant response rating [3, 20] | Surinam Grass plant response rating [3, 21] | Kochia plant response rating [4, 19] | Kochia plant response rating [4, 20] | Kochia plant response rating [4, 21] | Foxtail, Giant plant response rating [5, 19] | Foxtail, Giant plant response rating [5, 20] | Plant response rating, Foxtail, Giant ([5]; Preemergence) | Foxtail, Giant plant response rating [5, 21] | Lambsquarters plant response rating [6, 19] | Lambsquarters plant response rating [6, 20] | Plant response rating, Lambsquarters ([6]; Preemergence) | Lambsquarters plant response rating [6, 21] | Plant response rating, Velvetleaf ([8]; Preemergence, 500 g ai/ha) | Velvetleaf plant response rating [9, 20] | Velvetleaf plant response rating [9, 21] | Plant response rating, Barnyardgrass ([10]; Preemergence, 500 g ai/ha) | Nightshade plant response rating [11, 20] | Nightshade plant response rating [11, 21] | Foxtail, Green plant response rating [13, 19] | Foxtail, Green plant response rating [13, 20] | Foxtail, Green plant response rating [13, 21] | Johnsongrass plant response rating [14, 19] | Johnsongrass plant response rating [14, 20] | Plant response rating, Johnsongrass ([14]; Preemergence) | Johnsongrass plant response rating [14, 21] | Pigweed plant response rating [17, 23] | Plant response rating, Pigweed ([17]; Preemergence, 500 g ai/ha)
98: Oat, Wild plant response rating [15, 21]
90: Bromegrass, Downy plant response rating [7, 21] | Barnyardgrass plant response rating [10, 22] | Barnyardgrass plant response rating [10, 23] | Ragweed plant response rating [12, 21] | Oat, Wild plant response rating [15, 20]
95: Plant response rating, Surinam Grass ([3]; Preemergence)
60: Plant response rating, Velvetleaf ([8]; Postemergence, 125 g ai/ha) | Ragweed plant response rating [12, 19] | Plant response rating, Pigweed ([17]; Postemergence, 125 g ai/ha)
40: Velvetleaf plant response rating [9, 19] | Plant response rating, Oat, Wild ([15]; Preemergence) | Plant response rating, Ducksalad [16, 25]
70: Velvetleaf plant response rating [8, 22] | Velvetleaf plant response rating [8, 23]
85: Plant response rating, Foxtail, Green ([13]; Preemergence) | Oat, Wild plant response rating [15, 19]
